Results on one substance are retold here after patent US20130078317A1, “ZINC-CONTAINING COMPOSITIONS FOR THE TREATMENT OF DISEASES, ILLNESSES AND SYNDROMES ASSOCIATED WITH EXPOSURE TO PORE FORMING TOXINS” (priority 2009, published 2013).

The target in assay [1] is T1, purified hemolysin from Carybdea alata (Alatina alata, UniProt Q9GNN8).
T1 sequence (Q9GNN8 31-463 limits assumed): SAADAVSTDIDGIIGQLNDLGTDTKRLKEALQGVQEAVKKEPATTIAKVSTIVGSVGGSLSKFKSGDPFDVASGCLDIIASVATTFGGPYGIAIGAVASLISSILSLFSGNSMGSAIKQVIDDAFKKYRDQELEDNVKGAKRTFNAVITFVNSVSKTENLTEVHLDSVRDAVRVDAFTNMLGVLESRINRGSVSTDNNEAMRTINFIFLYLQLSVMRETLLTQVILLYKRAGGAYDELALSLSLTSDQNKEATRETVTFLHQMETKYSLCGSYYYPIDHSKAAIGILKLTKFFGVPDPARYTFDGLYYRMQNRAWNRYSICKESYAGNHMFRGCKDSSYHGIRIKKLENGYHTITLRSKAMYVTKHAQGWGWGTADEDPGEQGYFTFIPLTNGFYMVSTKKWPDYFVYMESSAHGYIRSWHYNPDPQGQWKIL
Nature of the assay: Potassium efflux induced by purified hemolysin from Carybdea alata in isolated red blood cells. Format: cell-based. The settings on record: 2% RBC; FIG. 4 legend.

For assay [2], the target named is T2, Carybdea alata hemolysin (Alatina alata, UniProt Q9GNN8).
T2 sequence (Q9GNN8 31-463 limits assumed): T1 sequence (Q9GNN8 31-463 limits assumed)
In words: Hemolysis induced by Carybdea alata hemolysin in 2% RBC. The settings on record: 5 mM zinc gluconate. It counts as cell-based.

For zinc gluconate, the “potassium efflux induced by purified hemolysin from Carybdea alata” value in assay [1] is recorded as “inhibits”. For the same substance, the “hemolysis induced by Carybdea alata hemolysin” value in assay [2] was “substantially inhibited”.
